Measured values as given in patent US20240148679A1, “METHODS AND COMPOSITIONS RELATED TO TREATMENT AND PREVENTION OF CANCER BY INHIBITION OF DGAT1 AND DGAT2” (Ohio State Innovation Foundation, priority 2019, published 2024).

Experiments:
GBM cells (U251) = assay: Seahorse analysis of OCR and ECAR; format: cell-based, human; settings: 20 μg/ml for 24 hours; for oxygen consumption rate (OCR): vs control cells
Experimental: (A, B) Transmission electron microscopy (TEM) analysis of the mitochondrial morphology in GBM cells (U251) treated with the DGAT1 inhibitor A-922500 (20 μg/ml) or DGAT2 inhibitor PF-06424439 (20 μg/ml) for 24 hr and shown in a or infected with shRNA-expressing lentivirus against DGAT1 for 48 hr and shown in b. Scale bar, 500 nm. Mitochondria are indicated by red arrows. Mitochondria length and loss of cristae (%) were quantified by ImageJ over 100 mitochondria in each group (mean±SEM). Statistical significance was determined by one-way ANOVA. * P<0.0001. (C, D) Representative fluorescence images of LDs (green) and mitochondria (red) in U251 cells treated with DGAT1 or DGAT2 inhibitor and shown in c or shRNA in (D) as in panels (A, B). LDs were stained with BODIPY 493/503 (green) and mitochondria were stained with MitoTracker Red. Nuclei were stained with Hoechst 33342 (blue). Scale bar, m. The percentage of cells with tubular or fragmented mitochondria was quantified by ImageJ in more than 100 cells (mean±SEM). Statistical significance was determined by one-way ANOVA. * P<0.001. (E, F) Analysis of mitochondrial activity by measuring oxygen consumption rate (OCR) in U251 cells treated with DGAT1/DGAT2 inhibitors or shRNA as in panels (A, B). Lower panels show the quantification of relative basal and maximal OCR change (details please see Methods). Data represent the mean±SD from 3 independent experiments. Basal OCR was determined as OCR before oligomycin subtract OCR after rotenone addition, and maximal OCR was determined as OCR after FCCP subtract OCR after rotenone addition. Statistical significance was determined by one-way ANOVA. * P<0.0001. (G, H) Representative fluorescence images of reactive oxygen species (ROS) production and mitochondria (green) in U251 cells treated with DGAT1/DGAT2 inhibitors or shRNA as in panels (A, B). ROS were detected with CellROX Deep Red, and mitochondria were stained with MitoTracker Green. Nuclei were stained with Hoechst 33342 (blue). Scale bar, 10 m. ROS levels were quantified by ImageJ in more than 100 cells (mean±SD). Statistical significance was determined by one-way ANOVA. * P<0.0001. (I, J) Representative fluorescence images of ROS levels (red) detected by CellROX Deep Red in U251 cells treated with the DGAT1 inhibitor or shRNA as in panels a and b in the presence or absence of N-acetyl-cysteine (NAC, 1 mM). Nuclei were stained with Hoechst 33342 (blue). Scale bar, 10 m. ROS levels were quantified by ImageJ in more than 100 cells (mean±SD) (right upper panels). Live and dead cells were counted by trypan blue staining after treatment for 3 days (mean±SD, n=3) (right bottom panels). Statistical significance was determined by one-way ANOVA. * P<0.0001. […]

liver cancer cells = assay: Liver cancer cell death with DGAT1 and DGAT2 inhibitors alone or in combination; format: cell-based, human
Experimental: MHCC97L 6×10^4 12 well plate, treated at 24 hours with 1% FBS DMEM with DGAT1 and DGAT2 inhibitors. Picture taken on day 4.
HEPG2 6×10^4 12 well plate, treated at 24 hours with 1% FBS DMEM with DGAT1 and DGAT2 inhibitors. Picture taken on day 4.
HeG2 8×10^4 12 well plate, treated at 24 hours with 1% FBS DMEM with DGAT1 and DGAT2 inhibitors. Picture taken on day 4.
Huh7 4×10^4 12-well plate, treated at 24 hours with 1% FBS DMEM with DGAT1 and DGAT2 inhibitors. Picture taken on day 4.
Hep3B 6×10^4 12-well plate, treated at 24 hours with 1% FBS DMEM with DGAT1 and DGAT2 inhibitors. Picture taken on day 4.
Huh7 6×10^4 12-well plate, treated at 24 hours with 1% FBS DMEM with DGAT1 and DGAT2 inhibitors. Picture taken on day 4.

[1] = DGAT1 inhibitor in combination with DGAT2 inhibitor

SMILES	extracellular acidification rate (ECAR) (GBM cells (U251))	oxygen consumption rate (OCR) (GBM cells (U251))	liver cancer cell death (liver cancer cells; [1])	liver cancer cell death (liver cancer cells; each single inhibitor)
O=C(Nc1ccccc1)Nc1ccc(-c2ccc(C(=O)[C@@H]3CCC[C@H]3C(=O)O)cc2)cc1 [A-922500]	did not affect	markedly reduced	effective to kill liver cancer cells	no ability to induce liver cancer cell death
CS(=O)(=O)O.O=C([C@@H]1CCCN(c2ccc3[nH]c(C4(n5cc(Cl)cn5)CC4)nc3n2)C1)N1CCCC1 [PF-06424439]	did not affect	no reduction was observed	effective to kill liver cancer cells	no ability to induce liver cancer cell death
